Activity calls are given as the source filed them. How the calls were made is not given here.
System: CCRIS mutagenicity, Ames/micronucleus/aberration tests
Experiment: CCRIS mutagenicity studies
[1] = Test System: AMES SALMONELLA TYPHIMURIUM, Strain/Indicator: TA100, Metabolic Activation: NONE, Method: STANDARD PLATE
[2] = Test System: AMES SALMONELLA TYPHIMURIUM, Strain/Indicator: TA100, Metabolic Activation: RAT, LIVER, S-9, AROCLOR 1254, Method: STANDARD PLATE
[3] = Test System: AMES SALMONELLA TYPHIMURIUM, Strain/Indicator: TA98, Metabolic Activation: NONE, Method: PREINCUBATION

For `Clc1cccnc1`, the mutagenic call (Test System: AMES SALMONELLA TYPHIMURIUM, Strain/Indicator: TA97, Metabolic Activation: NONE, Method: STANDARD PLATE) was “inactive; negative”, the mutagenic call (Test System: AMES SALMONELLA TYPHIMURIUM, Strain/Indicator: TA97, Metabolic Activation: RAT, LIVER, S-9, AROCLOR 1254, Method: STANDARD PLATE) was “inactive; negative” and the mutagenic call (Test System: AMES SALMONELLA TYPHIMURIUM, Strain/Indicator: TA98, Metabolic Activation: NONE, Method: STANDARD PLATE) was “inactive; negative”. The mutagenic call (Test System: AMES SALMONELLA TYPHIMURIUM, Strain/Indicator: TA98, Metabolic Activation: RAT, LIVER, S-9, AROCLOR 1254, Method: STANDARD PLATE) was “inactive; negative”, the mutagenic call [1] was “inactive; negative” and the mutagenic call [2] was “inactive; negative”. The mutagenic call (Test System: AMES SALMONELLA TYPHIMURIUM, Strain/Indicator: TA102, Metabolic Activation: NONE, Method: STANDARD PLATE) was “inactive; negative”, the mutagenic call (Test System: AMES SALMONELLA TYPHIMURIUM, Strain/Indicator: TA102, Metabolic Activation: RAT, LIVER, S-9, AROCLOR 1254, Method: STANDARD PLATE) was “inactive; negative” and the mutagenic call (Test System: MOUSE LYMPHOMA, Strain/Indicator: L5178Y (TK+/TK-), Metabolic Activation: NONE) was “active; positive”. The mutagenic call (Test System: MOUSE LYMPHOMA, Strain/Indicator: L5178Y (TK+/TK-), Metabolic Activation: RAT, LIVER, S-9, AROCLOR 1254) was “active; positive”.
In the case of `C[C@H](CCC(=O)O)[C@H]1CC[C@H]2[C@@H]3CC[C@@H]4C[C@H](O)CC[C@]4(C)[C@H]3C[C@H](O)[C@]12C`, the mutagenic call [3] was “inactive; negative”, the mutagenic call (Test System: AMES SALMONELLA TYPHIMURIUM, Strain/Indicator: TA98, Method: PREINCUBATION) was “inactive; negative” and the mutagenic call [1] was “inactive; negative”. For the same molecule, the mutagenic call [2] was “inactive; negative”.
In the case of `O=[N+]([O-])c1ccc(NCCO)c(OCCO)c1`, the mutagenic call (Test System: AMES SALMONELLA TYPHIMURIUM, Strain/Indicator: TA98, Metabolic Activation: HAMSTER, LIVER, S-9, AROCLOR 1254 (10%), Method: PREINCUBATION) was “active; positive”, the mutagenic call [3] was “active; positive” and the mutagenic call (Test System: AMES SALMONELLA TYPHIMURIUM, Strain/Indicator: TA98, Metabolic Activation: RAT, LIVER, S-9, AROCLOR 1254 (10%), Method: PREINCUBATION) was “active; positive”. The mutagenic call (Test System: AMES SALMONELLA TYPHIMURIUM, Strain/Indicator: TA100, Metabolic Activation: HAMSTER, LIVER, S-9, AROCLOR 1254 (10%), Method: PREINCUBATION) was “active; positive”, the mutagenic call (Test System: AMES SALMONELLA TYPHIMURIUM, Strain/Indicator: TA100, Metabolic Activation: NONE, Method: PREINCUBATION) was “active; positive” and the mutagenic call (Test System: AMES SALMONELLA TYPHIMURIUM, Strain/Indicator: TA100, Metabolic Activation: RAT, LIVER, S-9, AROCLOR 1254 (10%), Method: PREINCUBATION) was “active; positive”. The mutagenic call (Test System: AMES SALMONELLA TYPHIMURIUM, Strain/Indicator: TA1535, Metabolic Activation: HAMSTER, LIVER, S-9, AROCLOR 1254 (10%), Method: PREINCUBATION) was “inactive; negative”, the mutagenic call (Test System: AMES SALMONELLA TYPHIMURIUM, Strain/Indicator: TA1535, Metabolic Activation: NONE, Method: PREINCUBATION) was “active; positive” and the mutagenic call (Test System: AMES SALMONELLA TYPHIMURIUM, Strain/Indicator: TA1535, Metabolic Activation: RAT, LIVER, S-9, AROCLOR 1254 (10%), Method: PREINCUBATION) was “inactive; negative”. The mutagenic call (Test System: AMES SALMONELLA TYPHIMURIUM, Strain/Indicator: TA1537, Metabolic Activation: HAMSTER, LIVER, S-9, AROCLOR 1254 (10%), Method: PREINCUBATION) was “active; positive”, the mutagenic call (Test System: AMES SALMONELLA TYPHIMURIUM, Strain/Indicator: TA1537, Metabolic Activation: NONE, Method: PREINCUBATION) was “active; positive” and the mutagenic call (Test System: AMES SALMONELLA TYPHIMURIUM, Strain/Indicator: TA1537, Metabolic Activation: RAT, LIVER, S-9, AROCLOR 1254 (10%), Method: PREINCUBATION) was “active; positive”.
With `CCCOC(=O)C=Cc1ccc([N+](=O)[O-])o1` the mutagenic call [3] was “active; positive”.

Reference: PubChem BioAssay AID1259407 (Chemical Carcinogenesis Research Information System (CCRIS), 2018)
